Results as given in patent publication US11634425B2, “Pharmaceutical compounds” (priority 2019, dated 2023).
Read-outs that look alike come from different tables or passages of the source.

Test: in vivo
Format: in vivo, rat (Sprague Dawley)
Details: male SD rat; for Vd / clearance / Cmax / half-life / AUC(0-t): Sprague Dawley, in vivo; for Cmax / C 8 h: IV 1 mg/kg / PO 10 mg/kg study; for AUC(0-t): read-out: PO AUClast
Description: The pharmacokinetics of compounds were studied in vivo in rats at doses of 1 mg/kg (IV) and 10 mg/kg (PO).
Male rats [Sprague Dawley (SD)] surgically prepared with a jugular vein cannula were treated with experimental compounds via intravenous administration (IV; n=3; 1 mg/kg) or oral administration (PO; n=3; 10 mg/kg). Compounds were formulated as a solution in 40:60 dimethylacetamide:saline (IV administration) and a solution of 10% DMSO, 20% cremaphor in water (70%) (PO administration). […] Serial blood samples were collected via the cannula at 0.02, 0.08, 0.25, 0.5, 1, 2, 4, 6, 8 and 24 h post IV dosing of compound, and at 0.08, 0.25, 0.5, 1, 2, 4, 6, 8 and 24 h post oral dosing of compound, and plasma was prepared by centrifugation and stored immediately at −80° C. Samples were subsequently thawed, prepared for analysis by protein precipitation with acetonitrile, and analysed by tandem LCMS using electrospray ionisation using a matrix-matched calibration curve. PK parameters were calculated from the resulting data.

[1] = IV 1 mg/kg, read-out: IV t1/2 (converted)
[2] = PO 10 mg/kg, read-out: PO t1/2 (converted)

| SMILES | Vd (IV 1 mg/kg) | clearance (IV 1 mg/kg) | Cmax | half-life [1] | AUC(0-t) (PO 10 mg/kg) | C 8 h | F (IV 1 mg/kg, PO 10 mg/kg) | half-life [2] |
| --- | --- | --- | --- | --- | --- | --- | --- | --- |
| O=C(N[C@H]1N=C(c2ccccc2)c2ccccc2NC1=O)c1c(-c2ccccc2F)nn2cccnc12 [Example 2, 2-(2-Fluorophenyl)-N-[(3S)-2-oxo-5-phenyl-1,3-dihydro-1,4-benzodiazepin-3-yl]pyrazolo[1,5-a]pyrimidine-3-carboxamide] | 1.3 L/kg | 5 mL/min/kg | 2410 ng/mL | 3.1 h | 34200 ng·h/mL | 2290 ng/mL | 103% | – |
| Cc1ccc(-c2nn3cccnc3c2C(=O)N[C@H]2N=C(c3ccccc3)c3cccc(F)c3NC2=O)cn1 [Example 50, N-[(3S)-9-fluoro-2-oxo-5-phenyl-1,3-dihydro-1,4-benzodiazepin-3-yl]-2-(6-methylpyridin-3-yl)pyrazolo[1,5-a]pyrimidine-3-carboxamide] | 0.94 L/kg | 13 mL/min/kg | 2040 ng/mL | 1.2 h | 20000 ng·h/mL | 1003 ng/mL | 152% | 2.4 h |
| CCc1ccc(-c2nn3cccnc3c2C(=O)N[C@H]2N=C(c3ccccc3)c3cccc(F)c3NC2=O)cn1 [Example 55] | 1.2 L/kg | 14.3 mL/min/kg | 1420 ng/mL | 2 h | 14700 ng·h/mL | 753 ng/mL | 113% | 2.5 h |
